Patent US8877748B2, “Heterocyclic fused anthraquinone derivatives, manufacturing method and pharmaceutical composition using thereof” (National Defense Medical Center, priority 2012, dated 2014)
Where two headings read alike, the source gives them in different places.

System: PC-3 prostate cancer cell line
Test: SRB assay cell viability, PC-3 prostate cancer cell line
Type: cell-based, human
[1] = Homo sapiens, PC-3 prostate cancer cell line, Table II prints no unit, μM printed, read-out: SRB assay: 50% inhibition of cancer cell proliferation of sample concentration (IC50) of PC-3 prostate cancer cell line
[2] = PC-3 prostate cancer cell line, Table II prints no unit, μM printed, read-out: SRB assay: 50% inhibition of cancer cell proliferation of sample concentration (IC50) of PC-3 prostate cancer cell line
[3] = PC-3 prostate cancer cells, read-out: IC50 in PC-3 prostate cancer cells (cell viability analysis)

Molecule	IC50 [1]	also measured
CCCNc1cc2c(c3nsnc13)C(=O)c1ccccc1C2=O [C6, 4-(propylamino)anthra-[2,1-c][1,2,5] thiadiazol-6,11-dione]	3.25 µM	–
CCN1CCN(c2cc3c(c4nsnc24)C(=O)c2ccccc2C3=O)CC1 [C9, 4-(4-ethyl-piperazin-1-yl)anthra[2,1-c] [1,2,5]thiadiazol-6,11-dione]	9.43 µM	–
O=C1c2ccccc2C(=O)c2c1cc(Sc1ccc(Br)cc1)c1nsnc21 [C24, 4-(4-bromo-phenyl-thio)anthra[2,1-c] [1,2,5]thiadiazol-6,11-dione]	> 15 µM	–
4-(2-fluoro-phenyl thio)anthra[2,1-c] [1,2,5]thiadiazol oxazole-6,11-dione [C33]	–	IC50 [2]: > 15 µM; IC50 [3]: 5.48 µM
O=C1c2ccccc2C(=O)c2c1cc(Sc1ccc(F)cc1)c1nsnc21 [C28, 4-(4-fluoro-phenyl-thio)anthra[2,1-c] [1,2,5]thiadiazol-6,11-dione]	6.7 µM	–
O=C1c2ccccc2C(=O)c2c1cc(O)c1nsnc21 [C4, Potassium 6,11-dioxo-6,11-dihydroanthra[2,1-c][1,2,5]thiadiazol-4-olate]	18.5 µM	–
CCCCNc1cc2c(c3nsnc13)C(=O)c1ccccc1C2=O [C12, 4-butylamino-anthra[2,1-c][1,2,5] thiadiazol-6,11-dione]	1.76 µM	–
COc1ccccc1Sc1cc2c(c3nsnc13)C(=O)c1ccccc1C2=O [C23, 4-(2-methoxy-phenyl-thio)anthra[2,1-c] [1,2,5]thiadiazol-6,11-dione]	> 15 µM	–
4-(4-nitrophenyl thio)anthra[2,1-c][1,2,5] thiadiazol oxazole-6,11-dione [C45]	–	IC50 [2]: 8.38 µM
CC(C)(C)c1ccc(Sc2cc3c(c4nsnc24)C(=O)c2ccccc2C3=O)cc1 [C31, 4-(4-tert-butyl-alkylphenyl-thio)anthra [2,1-c][1,2,5]thiadiazol-6,11-dione]	–	IC50 [2]: > 15 µM
4-(2-mercapto-phenyl-thio)anthra[2,1-c] [1,2,5]thiadiazol oxazole-6,11-dione [C36]	–	IC50 [2]: > 15 µM
CC(C)c1ccc(Sc2cc3c(c4nsnc24)C(=O)c2ccccc2C3=O)cc1 [C26, 4-(4-isopropyl-phenyl-thio)anthra[2,1-c] [1,2,5]thiadiazol-6,11-dione]	> 15 µM	–
O=C1c2ccccc2C(=O)c2c1cc(Sc1cccc(Cl)c1Cl)c1nsnc21 [C30, 4-(2,3-dichloro-phenylthio)anthra[2,1-c] [1,2,5]thiadiazol oxazole-6,11-dione]	–	IC50 [2]: 11 µM
CCNc1cc2c(c3nsnc13)C(=O)c1ccccc1C2=O [C13, 4-ethylamino anthra[2,1-c][1,2,5] thiadiazol-6,11-dione]	2.97 µM	–
CCCSc1cc2c(c3nsnc13)C(=O)c1ccccc1C2=O [C17, 4-(n-propylthio)-anthra[2,1-c][1,2,5] thiadiazol-6,11-dione]	3.69 µM	–
O=C1c2ccccc2C(=O)c2c1cc(N1CCCCC1)c1nsnc21 [C11, 4-(piperidine-1-yl)anthra[2,1-c][1,2,5] thiadiazol-6,11-dione]	1.38 µM	–
Cc1cccc(Sc2cc3c(c4nsnc24)C(=O)c2ccccc2C3=O)c1 [C47, 4-(m-phenylmethylthio)anthra[2,1-c] [1,2,5]thiadiazol-6,11-dione]	–	IC50 [2]: > 15 µM
4-(phenethylthiol)anthra[2,1-c][1,2,5] thiadiazol-6,11-dione [C29]	–	IC50 [3]: 19 µM
4-(4-ethyl-phenyl-thio)anthra[2,1-c][1,2,5] thiadiazol oxazole-6,11-dione [C54]	–	IC50 [2]: 7.5 µM

More lines, main results first:

IC50 [1]	Molecule	also measured
> 15 µM	CC(C)c1ccccc1Sc1cc2c(c3nsnc13)C(=O)c1ccccc1C2=O [C52, 4-(2-isopropyl-phenyl-thio)anthra[2,1-c] [1,2,5]thiadiazol-6,11-dione]	–
12.4 µM	O=C1c2ccccc2C(=O)c2c1cc(Sc1cccc(Br)c1)c1nsnc21 [C40, 4-(3-bromophenylthio)anthra[2,1-c][1,2,5] thiadiazol-6,11-dione]	–
2.28 µM	O=C1c2ccccc2C(=O)c2c1cc(Nc1cccc(Cl)c1)c1nsnc21 [C63, 4-(3-chloro-phenylamino)anthra[2,1-c] [1,2,5]thiadiazol-6,11-dione]	–
> 15 µM	O=C1c2ccccc2C(=O)c2c1cc(Sc1ccccc1Cl)c1nsnc21 [C32, 4-(2-chloro-phenylthio)anthra[2,1-c] [1,2,5]thiadiazol-6,11-dione]	IC50 (Homo sapiens, PC-3 prostate cancer cells, read-out: IC50 in PC-3 prostate cancer cells (cell viability analysis)): > 15 µM
> 15 µM	Cc1ccc(Sc2cc3c(c4nsnc24)C(=O)c2ccccc2C3=O)cc1 [C44, 4-(4-methyl-phenyl-thio)anthra[2,1-c] [1,2,5]thiadiazol-6,11-dione]	–
> 15 µM	Cc1cc(C)cc(Sc2cc3c(c4nsnc24)C(=O)c2ccccc2C3=O)c1 [C49, 4-(3,5-dimethyl-phenyl-thio)anthra[2,1-c] [1,2,5]thiadiazol-6,11-dione]	–
8.82 µM	O=C1c2ccccc2C(=O)c2c1cc(Sc1cccc(F)c1)c1nsnc21 [C38, 4-(3-fluorophenylthio)anthra[2,1-c][1,2,5] thiadiazol-6,11-dione]	–
> 15 µM	CCc1ccccc1Sc1cc2c(c3nsnc13)C(=O)c1ccccc1C2=O [C51, 4-(2-ethyl-phenylthio)anthra[2,1-c][1,2,5] thiadiazol-6,11-dione]	–
> 15 µM	O=C1c2ccccc2C(=O)c2c1cc(Sc1cc(Cl)c(Cl)cc1Cl)c1nsnc21 [C34, 4-(2,4,5-trichloro-phenylthio)anthra[2,1-C] [1,2,5]thiadiazol-6,11-dione]	–
0.29 µM	Cc1cccc(Nc2cc3c(c4nsnc24)C(=O)c2ccccc2C3=O)c1 [C62, 4-(m-tolylamino)anthra[2,1-c][1,2,5] thiadiazol-6,11-dione]	–
5.84 µM	O=C1c2ccccc2C(=O)c2c1cc(SCc1ccccc1Cl)c1nsnc21 [C53, 4-(2-chloro-benzylthio)anthra[2,1-C] [1,2,5]thiadiazol-6,11-dione]	–
